Read-outs that look alike come from different tables or passages of the source.

Holding throughout (assay type): biochemical
Experiment [1] concerns the target T1, steroid sulfatase (STS) (Homo sapiens, UniProt P08842).
T1 construct: from tissue; host or cells: human term placenta, microsomal fraction
T1 sequence (P08842 22-583): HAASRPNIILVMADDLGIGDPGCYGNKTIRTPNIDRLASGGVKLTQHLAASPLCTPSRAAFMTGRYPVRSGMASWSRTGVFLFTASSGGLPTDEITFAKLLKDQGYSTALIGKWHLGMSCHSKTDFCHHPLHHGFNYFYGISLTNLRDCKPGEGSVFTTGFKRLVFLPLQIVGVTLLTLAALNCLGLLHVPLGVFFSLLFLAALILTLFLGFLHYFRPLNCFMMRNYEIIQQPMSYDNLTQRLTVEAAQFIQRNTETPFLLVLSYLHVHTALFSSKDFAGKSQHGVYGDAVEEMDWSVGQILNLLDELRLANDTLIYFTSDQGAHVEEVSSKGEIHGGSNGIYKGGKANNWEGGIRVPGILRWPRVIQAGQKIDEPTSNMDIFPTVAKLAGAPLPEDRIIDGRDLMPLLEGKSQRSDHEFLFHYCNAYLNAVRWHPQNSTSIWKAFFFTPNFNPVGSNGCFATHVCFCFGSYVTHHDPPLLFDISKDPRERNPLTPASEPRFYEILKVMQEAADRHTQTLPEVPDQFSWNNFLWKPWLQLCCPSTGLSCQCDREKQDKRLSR
Kind of experiment: STS inhibition, in vitro radiosubstrate incubation (release of E1 from E1S), human placental microsomes; Dixon kinetic analysis. The note with it: for remaining activity at 10 µM: 10 µM test compound, non-inhibited control 100%, mean ± SD, n = 3, read-out: STS Rel.conv. ± SD. As to the method:
(§1) Enzyme inhibition studies were performed by in vitro radiosubstrate incubations using human term placenta cytosol and microsomas as enzyme sources. […] Relative conversions compared to non-inhibited controls (100%) were measured in the presence of 10 µM concentration of the test compound. […] Mechanistic and kinetic investigations were performed and inhibitory constants (Ki) were determined for selected compounds.
Kinetic analyses of selected compounds 7a and 16c were performed by measurement of enzyme activities using different fixed substrate concentrations and varied inhibitor concentrations.
(§2) Enzymatic incubations were carried out in the HEPES buffer medium at a final volume of 200
(§3) µl. The substrate was added to the incubate in 20 µl of a 25 v/v% propylene glycol in HEPES buffer solution, whereas test compounds were applied in 10 µl of dimethyl sulfoxide solution.
(§4) Incubations were performed at 37 °C and terminated by cooling and the addition of organic solvents of the subsequent extraction procedure. Control samples with no inhibitor and blank samples were incubated simultaneously. […]
The incubation time was 2.5 min. […]
(§5) In the general procedure, incubations were performed as described. Concentrations of the substrates were 1.0 µM, and the test compounds were applied at 10 µM final concentration in the incubate. Relative conversions compared to non-inhibited controls (100%) were determined. The assays were performed in triplicate, and the mean value and the standard deviation (SD) were calculated. […]
(§6) these cases, conversions were measured at 10–15 different concentrations in the appropriate interval between 0.001–50 µM. IC50 results were calculated by using unweighted iterative least squares logistic curve fitting by means of the “absolute IC50 calculation“ function of the GraphPad Prism 4.0 software (GraphPad Software, Inc., San Diego, CA, USA).
(§7) Kinetic analyses were performed via measurement of the enzymatic transformation using different fixed substrate concentrations and varied inhibitor concentrations. The Dixon’s linear transformation (1/velocity vs. inhibitor concentration) was applied for evaluation and the inhibition constant (Ki) was determined from abscissa of intersection of the lines of different substrate concentrations. Mechanism of binding was identified according to the Dixon’s graphs and the secondary plot of slopes of the Dixon’s lines vs. 1/substrate […]
The inhibitor compounds were preincubated with the appropriate placenta fraction in a volume of 4.0 µl at 37 °C for various time periods (2.5-40 min). Following this procedure, […]

In experiment [2] the target is T2, 17β-hydroxysteroid dehydrogenase type 1 (17β-HSD1) (Homo sapiens, UniProt P14061).
T2 sequence (P14061 1-328): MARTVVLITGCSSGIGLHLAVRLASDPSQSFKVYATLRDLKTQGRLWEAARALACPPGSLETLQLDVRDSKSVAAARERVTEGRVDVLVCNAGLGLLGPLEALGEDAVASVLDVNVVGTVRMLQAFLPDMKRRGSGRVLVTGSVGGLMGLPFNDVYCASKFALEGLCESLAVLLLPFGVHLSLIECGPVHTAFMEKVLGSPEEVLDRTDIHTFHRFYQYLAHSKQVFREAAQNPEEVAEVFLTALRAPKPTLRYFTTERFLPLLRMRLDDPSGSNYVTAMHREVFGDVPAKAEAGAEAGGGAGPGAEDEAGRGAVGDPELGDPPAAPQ
Description: 17β-HSD1 inhibition, in vitro radiosubstrate incubation (E1 to E2), human placental cytosol; Dixon kinetic analysis. To be noted: for IC50: E1 substrate 1.0 µM, NADPH excess; for 17β-HSD1 Rel.conv. ± SD: 10 µM test compound, non-inhibited control 100%, mean ± SD, n = 3. The procedure: as §1
Inhibitors that bind to the steroid site of 17β-HSD1 can bind to both the free enzyme and the binary enzyme–cofactor complex by random kinetic mechanism.
as §2, §3, §4
The incubation time was 2.5 min. The product 17β-estradiol (E2, 5) was extracted with ethyl acetate and isolated by a TLC method (details are published in our earlier reference).
as §5, §6, §7
The inhibitor compounds were preincubated with the appropriate placenta fraction in a volume of 4.0 µl at 37 °C for various time periods (2.5-40 min). Following this procedure, samples were diluted with the incubation medium to 50-fold. Enzyme activity measurements

For experiment [3], the target named is T3, human aromatase (Homo sapiens, UniProt P11511).
T3 construct: from tissue; host or cells: human term placenta, microsomal fraction
T3 sequence (P11511 1-503): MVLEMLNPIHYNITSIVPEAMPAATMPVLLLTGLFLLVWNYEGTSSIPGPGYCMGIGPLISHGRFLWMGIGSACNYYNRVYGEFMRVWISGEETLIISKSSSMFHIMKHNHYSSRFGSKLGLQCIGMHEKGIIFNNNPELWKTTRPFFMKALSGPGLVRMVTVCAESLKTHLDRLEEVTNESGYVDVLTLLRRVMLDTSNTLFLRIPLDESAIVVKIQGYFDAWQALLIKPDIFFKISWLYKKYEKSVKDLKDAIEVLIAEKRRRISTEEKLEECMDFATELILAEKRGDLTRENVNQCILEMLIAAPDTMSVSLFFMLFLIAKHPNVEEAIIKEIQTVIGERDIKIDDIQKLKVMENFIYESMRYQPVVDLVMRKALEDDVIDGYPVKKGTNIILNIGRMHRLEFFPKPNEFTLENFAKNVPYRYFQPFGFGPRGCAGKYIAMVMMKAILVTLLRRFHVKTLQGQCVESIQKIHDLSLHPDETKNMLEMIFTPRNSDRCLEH
Kind of experiment: Aromatase inhibition, in vitro radiosubstrate incubation (testosterone to E2 conversion), human placental microsomes. To be noted: read-out: Arom Rel.conv. ± SD. As to the method:
as §1, §2, §3
Incubations were performed at 37 °C and terminated by cooling and the addition of organic solvents of the subsequent extraction procedure. Control samples with no inhibitor and blank samples were incubated simultaneously. The radioactivity of the products formed was measured by means of liquid scintillation counting (LSC) and taken as indicator of the […]
In the aromatase assays the microsoma suspension was incubated with appropriate concentration of unlabelled testosterone (2) substrate spiked with [1,2,6,7-3H]testosterone tracer, and in the presence of 0.1 mM NADPH cofactor excess. (In this case, solution of the substrate was prepared with acetonitrile instead of propylene glycol.) Incubation time was 40 min. The incubation mixture was extracted with toluene, then the toluene phase was drained and washed with HEPES buffer. Aromatase products containing phenolic hydroxy group were extracted with 1.2 M sodium hydroxide solution from the toluene extract and the alkaline phase was measured in the LSC. […]
was extracted with toluene. […]
as §5, §6
Kinetic analyses were performed via measurement of the enzymatic transformation using different fixed substrate concentrations and varied inhibitor concentrations. The Dixon’s linear transformation (1/velocity vs. inhibitor concentration) was applied for evaluation and the inhibition constant (Ki) was determined from abscissa of intersection of the lines of different substrate concentrations. Mechanism of binding was identified according to the […]

[4] abbreviates: E1S substrate 1.0 µM, read-out: STS IC50 ± SD.
Where [5] appears, read: 10 µM test compound, non-inhibited control 100%, mean ± SD, n = 3.

Usually IC50 stands for the concentration needed to halve the response being measured. `C[C@]12CCC[C@H]1[C@@H]1CCc3cc(O)c(I)cc3[C@H]1CC2` [14a]: the 50% inhibitory concentration (IC50) in experiment [1] (setting [4]) is 3.9 ± 1.6 µM; in experiment [2] (read-out: 17β-HSD1 IC50 ± SD) it was 2.9 ± 1.6 µM. The remaining activity at 10 µM in experiment [3] (setting [5]) was found to be 89 ± 9%.

On to `C[C@]12CCC[C@H]1[C@@H]1CCc3cc(O)c(Br)cc3[C@H]1CC2` [14b], for which the IC50 in experiment [1] (setting [4]) was determined as 4.1 ± 1.3 µM; in experiment [2] (read-out: 17β-HSD1 IC50 ± SD), 1.3 ± 0.8 µM. The remaining activity at 10 µM in experiment [3] (setting [5]) is 97 ± 5%.

Regarding `C[C@]12CCC[C@H]1[C@@H]1CCc3cc(O)c(Cl)cc3[C@H]1CC2` [14c], the values for the IC50 in experiment [1] (setting [4]) and in experiment [2] (read-out: 17β-HSD1 IC50 ± SD) were 7 ± 1.9 µM and 2.6 ± 1.3 µM, respectively. The remaining activity at 10 µM in experiment [3] (setting [5]) was 88 ± 10%.

For the molecule `C[C@]12CCC[C@H]1[C@@H]1CCc3c(ccc(O)c3I)[C@H]1CC2` [15a], the IC50 in experiment [1] (setting [4]) is 2.7 ± 1.3 µM. The “17β-HSD1 Rel.conv. ± SD” value in experiment [2] came to 57 ± 9%. Besides, the remaining activity at 10 µM in experiment [3] (setting [5]) was 92 ± 7%.

As for `C[C@]12CCC[C@H]1[C@@H]1CCc3c(ccc(O)c3Br)[C@H]1CC2` [15b], the results for the IC50 in experiment [1] (setting [4]) and in experiment [2] (read-out: 17β-HSD1 IC50 ± SD) were 3.7 ± 1.2 µM and 11 ± 4 µM, respectively. In addition, in experiment [2], the “17β-HSD1 Rel.conv. ± SD” value is reported as 49 ± 12%. Besides, the remaining activity at 10 µM in experiment [3] (setting [5]) was 90 ± 8%.

Turning to `C[C@]12CCC[C@H]1[C@@H]1CCc3c(ccc(O)c3Cl)[C@H]1CC2` [15c], the figures for the IC50 in experiment [1] (setting [4]) and in experiment [2] (read-out: 17β-HSD1 IC50 ± SD) were 6.3 ± 1.8 µM and 4.5 ± 2 µM, respectively. The remaining activity at 10 µM in experiment [3] (setting [5]) was 89 ± 1%.

Regarding `C[C@]12CCC[C@H]1[C@@H]1CCc3c(cc(I)c(O)c3I)[C@H]1CC2` [16a], the remaining activity at 10 µM in experiment [1] was determined as 59 ± 13%; in experiment [3] (setting [5]) it was 94 ± 2%. In addition, in experiment [2], the “17β-HSD1 Rel.conv. ± SD” value is reported as 61 ± 7%.

Consider `C[C@]12CCC[C@H]1[C@@H]1CCc3c(cc(Br)c(O)c3Br)[C@H]1CC2` [16b], for which the IC50 is 7.5 ± 2 µM in experiment [1] and 4.1 ± 2.5 µM in experiment [2] (17β-HSD1 IC50 ± SD). Moreover, the remaining activity at 10 µM in experiment [3] is 82 ± 6%.

As to `C[C@@]12CC[C@@H]3c4ccc(O)cc4CC[C@H]3[C@@H]1CCC2=O` [compound 9, 13α-Estrone], the results for the remaining activity at 10 µM in experiment [1] and in experiment [3] (setting [5]) were 96 ± 1% and 85 ± 13%, respectively.

For orientation: Ki means a dissociation constant, usually derived from enzyme kinetics or from competition with a known ligand. The low end stands for tighter binding, the high end for weaker binding. With `C[C@]12CCC[C@H]1[C@@H]1CCc3cc(O)ccc3[C@H]1CC2` [compound 13, 17-deoxy-13α-estrone], the remaining activity at 10 µM in experiment [1] is 76 ± 5%; in experiment [3] (setting [5]), 95 ± 12%. Further, the IC50 in experiment [2] (read-out: 17β-HSD1 IC50 ± SD) was determined as 1.1 ± 0.33 µM. Besides, the affinity in experiment [2] (from Dixon plot, cofactor excess) corresponds to a Ki of 2 µM.

The values above are taken from paper PMC6147116 (Journal of Enzyme Inhibition and Medicinal Chemistry, 2018).
